Patent US4946828A, “Novel insulin peptides” (Novo Nordisk A/S, priority 1985, dated 1990)

Assays:
fasted rabbits = assay: Test for prolongation of insulin effect (hypoglycemic effect, British Pharmacopoeia 1980, A 142); format: in vivo, rabbit; conditions: for Glucose in percent of initial, 1 h / Glucose in percent of initial, 2 h / Glucose in percent of initial, 4 h / Glucose in percent of initial, 6 h: pH 4.5, 14.3 nmole per rabbit s.c.; for Prolongation of action: about 240 nmole/ml
Description: Sterile injectable solutions of the compounds of formula I for testing of the degree of prolonged action were made using 1.6% (w/v) glycerol as the isotonicum, using 0.3% (w/v) m-cresol as the preservative, […] The pH values of the solutions were adjusted sufficiently off the isoelectric point of the compounds of formula I to keep the solutions clear upon storage at 4° C. The solutions contained 240 nmole/ml of the compounds of formula I. The concentration of 240 nmole/ml was established by measurement of the absorbance at 276 nm of a more concentrated stock solution devoid of m-cresol, using the molar extinction coefficient for porcine insulin of 6100 for these derivatives (see Handbuch der Inneren Medizin, Vol. 7/Part 2A, Editor: Oberdisse, 1975, 113). […] 1 U corresponds to 5.95 nmole.
Injectable solutions containing 240 nmole/ml of the compounds of formula I stated in Table II and having the pH values and content of zinc stated therein were made.
The prolongation of the hypoglycemic effect produced by the injectable solutions of insulin was tested according to British Pharmacopoeia 1980, A 142, in fasted rabbits. Each test solution was administered subcutaneously in a dosis of 14.3 nmole per rabbit in 12 animals weighing 3-4 kg, and the course of the hypoglycemia was followed for 6 hours.

mouse = assay: Mouse blood sugar depletion test (British Pharmacopoeia 1980, A 141-A 142); format: in vivo; conditions: solutions without additions of zinc (zinc content 8-10 μg/ml from crystals); estimated potencies
Description: The potencies of insulin compounds were accessed in the mouse blood sugar depletion test (British Pharmacopoeia 1980, A 141-A 142). In order to minimize the problem of estimating potency of insulins having a timing different from the standard, insulin solutions for potency determinations were made up without additions of zinc. Solutions were made up to contain […] based on the absorbance at 276 nm. The zinc content of solutions were 8-10 μg/ml, arising from the crystalline derivatives.

[1] = after subcutaneous administration; cited from earlier work

| Substance | Potency relative to insulin, % (mouse) | Glucose in percent of initial, 1 h (fasted rabbits; Zn++ 80 μg/ml) | Glucose in percent of initial, 2 h (fasted rabbits; Zn++ 80 μg/ml) | Glucose in percent of initial, 4 h (fasted rabbits; Zn++ 80 μg/ml) | Glucose in percent of initial, 6 h (fasted rabbits; Zn++ 80 μg/ml) | other results |
| --- | --- | --- | --- | --- | --- | --- |
| Lys^B27,Lys^B30 --NH2 human insulin [Lys^B27,Lys^B30 --NH2 insulin] | 56% |  |  |  |  | Glucose in percent of initial, 1 h (fasted rabbits; Zn++ 9.5 μg/ml): 72% of initial; Glucose in percent of initial, 2 h (fasted rabbits; Zn++ 9.5 μg/ml): 65% of initial; Glucose in percent of initial, 4 h (fasted rabbits; Zn++ 9.5 μg/ml): 65% of initial; Glucose in percent of initial, 6 h (fasted rabbits; Zn++ 9.5 μg/ml): 60% of initial |
| Gln^B21 insulin | 96% |  |  |  |  |  |
| Arg^B27,Lys^B30 --NH2 human insulin [Arg^B27,Lys^B30 --NH2 insulin] | 84% | 85% of initial | 83% of initial | 81% of initial | 79% of initial | Glucose in percent of initial, 1 h (fasted rabbits; Zn++ 10.9 μg/ml): 78% of initial; Glucose in percent of initial, 2 h (fasted rabbits; Zn++ 10.9 μg/ml): 73% of initial; Glucose in percent of initial, 4 h (fasted rabbits; Zn++ 10.9 μg/ml): 69% of initial; Glucose in percent of initial, 6 h (fasted rabbits; Zn++ 10.9 μg/ml): 67% of initial |
| A1,B29-di-Boc substituted insulin |  |  |  |  |  | Prolonged insulin action [1]: too slightly prolonged action to be clinically useful |
| Gln^B13,Gln^A17 human insulin [Gln^A17,Gln^B13 insulin] | 50% | 53% of initial | 47% of initial | 55% of initial | 82% of initial |  |
| Lys^B27 human insulin [Lys^B27 insulin] | 88% | 47% of initial | 40% of initial | 55% of initial | 93% of initial |  |
| Gln^A17,Lys^B30 --NH2 human insulin [Gln^A17,Lys^B30 --NH2 insulin] | 62% | 60% of initial | 56% of initial | 73% of initial | 86% of initial |  |
| Gln^A17,Arg^B27human insulin [Gln^A17,Arg^B27 insulin] | 69% | 53% of initial | 47% of initial | 50% of initial | 66% of initial |  |
| Gln^B13,Arg^B27,Thr^B30 --NH2 human insulin [Gln^B13,Arg^B27,Thr^B30 --NH2 insulin] | 62% |  |  |  |  |  |
| Gln^B13,Arg^B27 human insulin [Gln^B13,Arg^B27 insulin] | 78% | 55% of initial | 46% of initial | 61% of initial | 91% of initial |  |
| Lys^B30 --NH2 insulin |  | 74% of initial | 83% of initial | 80% of initial | 82% of initial | Prolongation of action (fasted rabbits; 30 zinc per hexamer, 80 μg zinc/ml): moderate prolongation of action |
| Gln^A17,Thr^B30 --NH2 human insulin [Gln^A17,Thr^B30 --NH2 insulin] | 67% | 65% of initial | 63% of initial | 68% of initial | 83% of initial |  |
| Arg^B27,Thr^B30 --NH2 human insulin [Arg^B27,Thr^B30 --NH2 insulin] | 92% | 88% of initial | 86% of initial | 85% of initial | 81% of initial | Prolongation of action (fasted rabbits; 3 zinc atoms per hexamer, 8 μg zinc/ml): very prolonged action; Glucose in percent of initial, 1 h (fasted rabbits; Zn++ […]): 62% of initial; Glucose in percent of initial, 2 h (fasted rabbits; Zn++ […]): 64% of initial; Glucose in percent of initial, 4 h (fasted rabbits; Zn++ […]): 66% of initial; Glucose in percent of initial, 6 h (fasted rabbits; Zn++ […]): 67% of initial |
| Arg^B27 human insulin [Arg^B27 insulin] | 87% | 45% of initial | 34% of initial | 51% of initial | 91% of initial |  |
| Gln^A17,Arg^B27,Thr^B30 --NH2 human insulin [Gln^A17,Arg^B27,Thr^B30 --NH2 insulin] | 71% |  |  |  |  |  |
| Lys^B27,Thr^B30 --NH2 human insulin [Lys^B27,Thr^B30 --NH2 insulin] | 82% |  |  |  |  | Glucose in percent of initial, 1 h (fasted rabbits; Zn++ […]): 56% of initial; Glucose in percent of initial, 2 h (fasted rabbits; Zn++ […]): 55% of initial; Glucose in percent of initial, 4 h (fasted rabbits; Zn++ […]): 62% of initial; Glucose in percent of initial, 6 h (fasted rabbits; Zn++ […]): 61% of initial |
| Gln^A4 insulin | 79% |  |  |  |  |  |
| Gln^B13,Thr^B30 --NH2 human insulin [Gln^B13,Thr^B30 --NH2 insulin] |  |  |  |  |  | Glucose in percent of initial, 1 h (fasted rabbits; Zn++ […]): 91% of initial; Glucose in percent of initial, 2 h (fasted rabbits; Zn++ […]): 92% of initial; Glucose in percent of initial, 4 h (fasted rabbits; Zn++ […]): 92% of initial; Glucose in percent of initial, 6 h (fasted rabbits; Zn++ […]): 90% of initial |
| Gln^A17,Gln^B13,Thr^B30 --NH2 human insulin [Gln^A17,Gln^B13,Thr^B30 --NH2 insulin] | 49% |  |  |  |  |  |
